Drawing on US6822100B2 (Bristol-Myers Squibb Company, priority 2001, dated 2004), this text covers Ki for 27 compounds.

Assay [1] addresses T1, human serotonin transporters (Homo sapiens, UniProt P31645).
T1 construct: expressed in transfected cells; host or cells: HEK-293 (HEK-hSERT), membrane homogenates
Briefly: Serotonin Transporter Binding Assay. As to conditions: HEK-hSERT cell membranes, 1 nM [3H]-citalopram, Cheng and Prusoff. An outline of the steps:
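Membranes from HEK-293 cells stably expressing hSERT were incubated 1 hr at 25° C with 1 nM [^3H]-citalopram and test compound in 50 mM Tris pH 7.4, 120 mM NaCl, 5 mM KCl, then filtered. Non-specific binding was defined by 10 μM fluoxetine. IC50 came from displacement curves, and Ki by Cheng–Prusoff.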

For assay [2], the target named is T2, recombinant human dopamine D2L receptors (Homo sapiens, UniProt P14416).
T2 construct: expressed in transfected cells; host or cells: HEK-293 (HEK-D2L), membrane homogenates
T2 sequence (P14416 whole entry): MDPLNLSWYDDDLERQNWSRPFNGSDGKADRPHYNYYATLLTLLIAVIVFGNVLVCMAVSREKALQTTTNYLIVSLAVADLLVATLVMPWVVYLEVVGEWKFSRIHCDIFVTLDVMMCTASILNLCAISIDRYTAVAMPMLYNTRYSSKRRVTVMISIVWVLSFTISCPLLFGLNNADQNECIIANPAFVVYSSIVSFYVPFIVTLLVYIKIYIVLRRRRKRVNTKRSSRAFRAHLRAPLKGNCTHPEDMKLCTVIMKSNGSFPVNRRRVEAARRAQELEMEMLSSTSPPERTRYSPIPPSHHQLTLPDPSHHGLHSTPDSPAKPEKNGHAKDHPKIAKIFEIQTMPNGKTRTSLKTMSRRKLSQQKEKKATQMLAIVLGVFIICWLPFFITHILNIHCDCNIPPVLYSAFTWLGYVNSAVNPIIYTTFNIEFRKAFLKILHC
Briefly: Dopamine Binding Assay. As to conditions: HEK-D2L cell membranes, 150 pM [3H]-spiperone, Cheng and Prusoff. The procedure, abridged:
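Competition binding on HEK-293 membranes stably expressing human D2L (~5 μg protein) with 150 pM [3H]-spiperone, 1.5 h at 22 °C in 50 mM Tris pH 7.4, 1 mM EDTA, 6 mM MgCl2. Filtration read-out; non-specific binding defined with 2 μM (+)butaclamol, Ki by Cheng-Prusoff.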

Usually Ki stands for the equilibrium dissociation constant of an inhibitor or competing ligand from its target.

Read-outs that look alike come from different tables or passages of the source.

T1 sequence (P31645 whole entry): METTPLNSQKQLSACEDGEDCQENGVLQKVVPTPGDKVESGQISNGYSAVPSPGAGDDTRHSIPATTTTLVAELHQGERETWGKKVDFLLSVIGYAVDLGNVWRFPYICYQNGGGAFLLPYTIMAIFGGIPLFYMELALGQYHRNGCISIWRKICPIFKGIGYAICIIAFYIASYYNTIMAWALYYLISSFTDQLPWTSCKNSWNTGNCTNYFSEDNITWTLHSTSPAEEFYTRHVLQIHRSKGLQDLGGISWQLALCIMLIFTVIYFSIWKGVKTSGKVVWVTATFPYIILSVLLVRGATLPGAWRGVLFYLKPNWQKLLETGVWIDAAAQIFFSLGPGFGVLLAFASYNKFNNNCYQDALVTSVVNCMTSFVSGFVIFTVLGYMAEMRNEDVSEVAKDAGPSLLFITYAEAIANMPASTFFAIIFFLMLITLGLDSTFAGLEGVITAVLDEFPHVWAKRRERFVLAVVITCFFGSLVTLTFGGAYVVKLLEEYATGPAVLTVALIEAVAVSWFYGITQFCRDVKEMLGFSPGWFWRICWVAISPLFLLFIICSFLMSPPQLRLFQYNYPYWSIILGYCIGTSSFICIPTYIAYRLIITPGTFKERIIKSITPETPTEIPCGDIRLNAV

As for `CN(C)C[C@@H]1C[C@H]1Cc1c[nH]c2ccc(F)cc12` (single isomer, unassigned) [Example 148, (+)-[2-(5-Fluoro-1H-indol-3-ylmethyl)-cyclopropylmethyl]-dimethylamine], the Ki was 10 to 100 nM in assay [1] (read-out: SERT Ki) and 100 to 1000 nM in assay [2].
For `N#Cc1ccc2[nH]cc([C@@H]3C[C@H]3CNCCc3c[nH]cn3)c2c1` (relative stereo) [Example 23, trans-2-[5-Cyanoindol-3-yl]-1-[N-2-(4-imidazolyl)ethylaminomethyl]-cyclopropane] the same measures were 10 to 100 nM and 10 to 100 nM.
The matching figures for `CNCC1CC1c1c[nH]c2ccc(C#N)cc12` (racemic) [Example 119, trans-2-[5-Cyanoindol-3-yl]-1-(N-methylaminomethyl)cyclopropane]: 1 to 10 nM and 100 to 1000 nM.
For `CCOC(=O)NCCN(CC)C[C@@H]1C[C@H]1c1c[nH]c2ccc(C#N)cc12` (relative stereo) [Example 94, trans-2-[5-Cyanoindol-3-yl]-1-[N,N-ethyl-2-amino(ethylcarbamoyl)ethylaminomethyl]-cyclopropane] the same measures were less than 1 nM and greater than 1000 nM.
On to `N#Cc1ccc2[nH]cc([C@@H]3C[C@H]3CNCCc3ccc(F)cc3)c2c1` (relative stereo) [Example 19, trans-2-[5-Cyanoindol-3-yl]-1-[N-2-(4-fluorophenyl)ethylaminomethyl]-cyclopropane], for which the Ki lay in the range of 1 to 10 nM in assay [1] (read-out: SERT Ki) and 10 to 100 nM in assay [2].
The matching figures for `CCNC(C)C1CC1c1c[nH]c2ccc(C#N)cc12` (racemic) [Example 126, trans-3-[2-(1-Ethylamino-ethyl)-cyclopropyl]-1H-indole-5-carbonitrile]: 10 to 100 nM and 100 to 1000 nM.
For `COc1cccc(CNCC2CC2c2c[nH]c3ccc(F)cc23)c1` (stereo not drawn) [Example 51, trans-2-[5-Fluoroindol-3-yl]-1-[N-(3-methoxybenzyl)aminomethyl]-cyclopropane] the same measures were 1 to 10 nM and 100 to 1000 nM.
Regarding `CC([C@@H]1C[C@H]1c1c[nH]c2ccc(C#N)cc12)N(C)C` (single isomer, unassigned) [Example 122B, trans-3-[2-(1-Dimethylamino-ethyl)-cyclopropyl]-1H-indole-5-carbonitrile], the Ki is 1 to 10 nM in assay [1] (SERT Ki (nM)) and greater than 1000 nM in assay [2].
Consider `N#Cc1ccc2[nH]cc([C@@H]3C[C@H]3CNCCc3ccccc3F)c2c1` (relative stereo) [Example 17, trans-2-[5-Cyanoindol-3-yl]-1-[N-2-(2-fluorophenyl)ethylaminomethyl]-cyclopropane], for which the Ki was in the range of 1 to 10 nM in assay [1] (read-out: SERT Ki) and 10 to 100 nM in assay [2].
The matching figures for `CCOC(=O)NCCN(C)C[C@@H]1C[C@H]1c1c[nH]c2ccc(C#N)cc12` (relative stereo) [Example 87, trans-2-[5-Cyanoindol-3-yl]-1-[N,N-methyl-2-amino(ethylcarbamoyl)ethylaminomethyl]-cyclopropane]: 10 to 100 nM and 100 to 1000 nM.
The matching figures for `N#Cc1ccc2[nH]cc([C@@H]3C[C@H]3CNC3CCCCC3)c2c1` (relative stereo) [Example 29, trans-2-[5-Cyanoindol-3-yl]-1-[N-cyclohexylaminomethyl]-cyclopropane]: 10 to 100 nM and 10 to 100 nM.
Turning to `CCOC(=O)NCCCN(CC)C[C@@H]1C[C@H]1c1c[nH]c2ccc(C#N)cc12` (relative stereo) [Example 98, trans-2-[5-Cyanoindol-3-yl]-1-[N,N-ethyl-2-amino(ethylcarbamoyl)propylaminomethyl]-cyclopropane], the Ki in assay [1] (read-out: SERT Ki) fell in the range of 1 to 10 nM; in assay [2] it was 100 to 1000 nM.
Take `CCNCC1CC1c1c[nH]c2ccc(C#N)cc12` (stereo not drawn) [Example 135]: the Ki in assay [1] (read-out: SERT Ki) fell in the range of 1 to 10 nM; in assay [2], 10 to 100 nM.
The matching figures for `CNCC1CC1c1c[nH]c2ccc(F)cc12` (stereo not drawn) [Example 181, cis-1-(N-methylaminomethyl)-2-[5-fluoroindol-3-yl]-cyclopropane]: 10 to 100 nM and 100 to 1000 nM.
The matching figures for `CC(C)CCNCC1CC1c1c[nH]c2ccc(C#N)cc12` (stereo not drawn) [Example 32, trans-2-[5-Cyanoindol-3-yl]-1-[N-3-methyl-butylaminomethyl]-cyclopropane]: 10 to 100 nM and 10 to 100 nM.
For `CCN(CC)C[C@@H]1C[C@H]1c1c[nH]c2ccc(F)cc12` (relative stereo) [Example 86] the same measures were 10 to 100 nM and 100 to 1000 nM.
In the case of `N#Cc1ccc2[nH]cc(C3CC3CNCC3CC3)c2c1` (stereo not drawn) [Example 28, trans-2-[5-Cyanoindol-3-yl]-1-[N-cyclopropylmethylaminomethyl]-cyclopropane], the inhibition constant (Ki) was 10 to 100 nM in assay [1] (SERT Ki (nM)) and greater than 1000 nM in assay [2].
Regarding `CC1CCN(CC2CC2c2c[nH]c3ccc(C#N)cc23)CC1` (stereo not drawn) [Example 33, trans-2-[5-Cyanoindol-3-yl]-1-(4-methyl-piperidin-1-yl-methyl)-cyclopropane], the Ki in assay [1] (read-out: SERT Ki) lay within 10 to 100 nM; in assay [2], 100 to 1000 nM.
As to `CC(C1CC1c1c[nH]c2ccc(C#N)cc12)N(C)C` (racemic) [Example 121, trans-3-[2-(1-Dimethylamino-ethyl)-cyclopropyl]-1H-indole-5-carbonitrile], the Ki in assay [1] (SERT Ki (nM)) was less than 1 nM; in assay [2], greater than 1000 nM.
Regarding `Fc1ccc2[nH]cc(C3CC3CNCCc3ccccc3F)c2c1` (stereo not drawn) [Example 59, trans-2-[5-Fluoroindol-3-yl]-1-[N-(2-fluorophenyl)ethylaminomethyl]-cyclopropane], the inhibition constant (Ki) in assay [1] (read-out: SERT Ki) and in assay [2] was 10 to 100 nM in each case.
Turning to `CCN(CC)CCC1CC1c1c[nH]c2ccc(C#N)cc12` (stereo not drawn) [Example 144, 3-[2-(2-Diethylamino-ethyl)-cyclopropyl]-1H-indole-5-carbonitrile], the Ki in assay [1] (read-out: SERT Ki) was in the range of 10 to 100 nM; in assay [2] it was 100 to 1000 nM.
The matching figures for `N#Cc1ccc2[nH]cc(C3CC3CNCCc3cccs3)c2c1` (stereo not drawn) [Example 26, trans-2-[5-Cyanoindol-3-yl]-1-[N-2-(2-thiopheneyl)ethylaminomethyl]-cyclopropane]: 1 to 10 nM and 10 to 100 nM.
For `N#Cc1ccc2[nH]cc(C3CC3CNCC3CCCCC3)c2c1` (stereo not drawn) [Example 30, trans-2-[5-Cyanoindol-3-yl]-1-[N-cyclohexylmethylaminomethyl]-cyclopropane] the same measures were 1 to 10 nM and 10 to 100 nM.
Take `CN(CC1CC1c1c[nH]c2ccc(C#N)cc12)c1ccccc1` (stereo not drawn) [Example 138]: the Ki in assay [1] (read-out: SERT Ki) is 10 to 100 nM; in assay [2], greater than 1000 nM.
The matching figures for `CCCOC(=O)NCCN(CC)C[C@@H]1C[C@H]1c1c[nH]c2ccc(C#N)cc12` (relative stereo) [Example 95, trans-2-[5-Cyanoindol-3-yl]-1-[N,N-ethyl-2-amino(propylcarbamoyl)ethylaminomethyl]-cyclopropane]: 1 to 10 nM and greater than 1000 nM.
The matching figures for `CCCOC(=O)NCCN(CC)C[C@@H]1C[C@H]1c1c[nH]c2ccc(F)cc12` (relative stereo) [Example 110, trans-1-[N,N-Ethyl-2-amino(propylcarbamoyl)ethylaminomethyl]-2-[5-fluoroindol-3-yl]-cyclopropane]: 1 to 10 nM and 100 to 1000 nM.
The matching figures for `CCNCC1CC1c1csc2ccccc12` (stereo not drawn) [Example 169, (2-Benzo[b]thiophen-3-yl-cyclopropylmethyl)-ethyl-amine]: 10 to 100 nM and 100 to 1000 nM.
